Source: patent US20150352108A1, “AMINO-PYRIMIDINE COMPOUNDS AS INHIBITORS OF TBK1 AND/OR IKK EPSILON” (Alzheimer's Institute of America, priority 2009, published 2015)
Like-named read-outs stand apart in the source and are kept apart here.

Legend:
[1] = test system: IKKε-mediated phosphorylation of IRF3; assay: In-situ phosphorylation of IRF3 (pIRF3 Ser396 ELISA) in HEK293T cells cotransfected with IRF3 and IKKε; type: cell-based; settings: Homo sapiens, HEK-293T
Outline: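 Cells for the IRF7 Western blots carried IRF7 and TBK1 plasmids, were seeded at 150,000/well, exposed to compound overnight and probed for pSer477/Ser479 IRF7. The ELISA readout used IRF3 + IKKε-cotransfected HEK293T at 20,000/well with 20 h treatment, quantifying pSer396 IRF3 relative to DMSO, plus a parallel CellTiter-Glo viability check.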

IKKε = biological target: T1, IKKε (Homo sapiens, UniProt Q14164); assay: In-vitro IKKε kinase assay ([γ33]ATP filter-plate); type: biochemical
T1 construct: His-tag; made in house; host or cells: Sf9 insect cells
T1 sequence (Q14164 1-716): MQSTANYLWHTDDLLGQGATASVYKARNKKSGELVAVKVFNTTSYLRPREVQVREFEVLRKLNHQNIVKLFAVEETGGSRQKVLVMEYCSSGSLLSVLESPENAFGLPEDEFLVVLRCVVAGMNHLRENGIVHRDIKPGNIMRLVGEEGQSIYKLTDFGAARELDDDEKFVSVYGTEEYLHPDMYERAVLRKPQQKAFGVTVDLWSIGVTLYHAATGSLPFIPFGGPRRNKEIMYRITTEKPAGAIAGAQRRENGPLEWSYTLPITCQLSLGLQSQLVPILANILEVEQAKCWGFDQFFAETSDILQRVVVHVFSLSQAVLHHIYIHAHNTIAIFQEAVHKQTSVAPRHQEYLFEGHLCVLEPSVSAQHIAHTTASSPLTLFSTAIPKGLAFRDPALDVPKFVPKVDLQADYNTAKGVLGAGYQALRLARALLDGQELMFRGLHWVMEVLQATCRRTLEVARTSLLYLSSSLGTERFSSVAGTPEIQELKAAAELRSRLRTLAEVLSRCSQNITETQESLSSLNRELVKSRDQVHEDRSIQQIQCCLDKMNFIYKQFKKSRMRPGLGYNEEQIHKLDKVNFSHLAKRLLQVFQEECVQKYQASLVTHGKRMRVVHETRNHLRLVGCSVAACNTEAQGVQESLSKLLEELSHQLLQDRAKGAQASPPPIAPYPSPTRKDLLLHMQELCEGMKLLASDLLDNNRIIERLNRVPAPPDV
Outline: (§1)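 His-tagged IKKε and TBK1 from Sf9 cells were assayed with myelin basic protein or casein and [γ33]ATP at 2×Km ATP (32 μM for IKKε, 60 μM for TBK1). Enzyme was 0.1 or 0.015 μg/ml for IKKε and 0.1 or 0.02 μg/ml for TBK1 (normal/sensitized). Reactions ran 30-45 min, were filter-captured, scintillation-counted, and normalized to DMSO after background subtraction.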

TBK1 = biological target: T2, TBK1 (Homo sapiens, UniProt Q9UHD2); assay: In-vitro TBK1 kinase assay ([γ33]ATP filter-plate); type: biochemical
T2 construct: His-tag; made in house; host or cells: Sf9 insect cells
T2 sequence (Q9UHD2 1-729): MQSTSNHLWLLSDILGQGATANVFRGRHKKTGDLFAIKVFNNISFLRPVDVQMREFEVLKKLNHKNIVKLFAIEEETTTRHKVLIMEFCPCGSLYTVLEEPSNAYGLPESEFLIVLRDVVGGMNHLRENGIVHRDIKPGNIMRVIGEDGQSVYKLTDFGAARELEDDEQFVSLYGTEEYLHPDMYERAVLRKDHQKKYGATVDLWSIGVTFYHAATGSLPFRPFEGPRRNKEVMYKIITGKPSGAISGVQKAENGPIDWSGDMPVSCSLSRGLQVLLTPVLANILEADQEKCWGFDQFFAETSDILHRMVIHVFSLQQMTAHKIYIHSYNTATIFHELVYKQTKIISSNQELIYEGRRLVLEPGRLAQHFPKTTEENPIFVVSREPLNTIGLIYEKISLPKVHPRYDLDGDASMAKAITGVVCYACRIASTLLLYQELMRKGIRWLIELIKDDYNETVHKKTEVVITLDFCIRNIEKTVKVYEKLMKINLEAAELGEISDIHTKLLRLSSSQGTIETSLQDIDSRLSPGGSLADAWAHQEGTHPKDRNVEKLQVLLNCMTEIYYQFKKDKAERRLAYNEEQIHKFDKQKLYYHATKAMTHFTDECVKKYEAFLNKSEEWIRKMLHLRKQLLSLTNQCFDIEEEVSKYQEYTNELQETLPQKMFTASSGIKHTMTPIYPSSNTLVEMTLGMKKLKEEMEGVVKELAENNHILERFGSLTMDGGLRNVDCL
Outline: as §1

[2] = HEK293T cells, 20 hours, text bins, read-out: IC50 for inhibition of the in-situ IKKε-mediated phosphorylation of IRF3
[3] = text bins, read-out: IC50 for inhibition of the kinase activity of IKKε
[4] = text bins, read-out: IC50 for inhibition of the kinase activity of TBK1
[5] = HEK293T cells in culture, Table 3, read-out: pIRF3 ELISA IC50

Row | Compound | IC50 [1, 2] [nM] | IC50 (IKKε; [3]) [nM] | IC50 (TBK1; [4]) [nM] | IC50 [1, 5] [nM] | IC50 (IKKε; Table 3, read-out: IKKε IC50) [nM] | IC50 (TBK1; Table 3, read-out: TBK1 IC50) [nM]
1 | N#Cc1cc(-c2ccnc(Nc3ccc(F)c(OCCN)c3)n2)ccc1OCC1CC1 [compound 612, 5-(2-{[3-(2-Aminoethoxy)-4-fluorophenyl]amino}pyrimidin-4-yl)-2-(cyclopropylmethoxy) benzonitrile] | 100 to 250 | < 5 | < 10 |  |  | 
2 | N#Cc1cc(-c2ccnc(Nc3cccc(CO)c3)n2)ccc1OC1CCOCC1 [compound 395, 5-(2-{[3-(hydroxymethyl)phenyl]amino}pyrimidin-4-yl)-2-(tetrahydro-2H-pyran-4-yloxy)benzonitrile] | < 100 | < 5 | < 10 |  |  | 
3 | N#Cc1cc(-c2ccnc(Nc3ccc(CN)cc3)n2)ccc1OC1CCOCC1 [compound 486, 5-(2-{[4-(aminomethyl)phenyl]amino}pyrimidin-4-yl)-2-(tetrahydro-2H-pyran-4-yloxy)benzonitrile] | 250 to 500 | < 5 | < 10 |  |  | 
4 | CCN(CC)CCOc1ccc(Nc2nccc(-c3ccc(OC4CCOCC4)c(C#N)c3)n2)cc1OC [compound 530] | < 100 | < 5 | < 10 |  |  | 
5 | N#Cc1cc(-c2ccnc(Nc3ccc(CS(=O)(=O)N4CCN(CCO)CC4)cc3)n2)ccc1OC1CCOCC1 [compound 406, 5-(2-{[4-({[4-(2-Hydroxyethyl)piperazin-1-yl]sulfonyl}methyl)phenyl]amino}pyrimidin-4-yl)-2-(tetrahydro-2H-pyran-4-yloxy)benzonitrile] | < 100 | < 5 | < 10 |  |  | 
6 | CCN1CCN(CCCOc2cc(Nc3nccc(-c4ccc(OC5CCOCC5)c(C#N)c4)n3)ccc2OC)CC1 [compound 525, 5-[2-({3-[3-(4-ethylpiperazin-1-yl)propoxy]-4-methoxyphenyl}amino)pyrimidin-4-yl]-2-(tetrahydro-21H-pyran-4-yloxy)benzonitrile] | < 100 | < 5 | < 10 |  |  | 
7 | CCC(=O)Nc1ccc(-c2ccnc(Nc3ccc(N4CCOCC4)cc3)n2)cc1C#N [compound 445, N-[2-Cyano-4-(2-{[4-(morpholin-4-yl)phenyl]amino}pyrimidin-4-yl)phenyl] propanamide] | 250 to 500 | 5 to 50 | < 10 |  |  | 
8 | N#Cc1cc(-c2ccnc(Nc3cccc(-c4nnn[nH]4)c3)n2)ccc1OC1CCOCC1 [compound 594, 2-(Tetrahydro-2H-pyran-4-yloxy)-5-(2-{[3-(1H-tetrazol-5-yl)phenyl]amino}pyrimidin-4-yl)benzonitrile] |  | < 5 | < 10 | > 5000 | 0.3 | 2
9 | COCCNCc1ccc(Nc2nccc(-c3ccc(NC(=O)C4CC4)c(C#N)c3)n2)cc1OC [compound 556] | < 100 | 5 to 50 | < 10 |  |  | 
10 | CN1CCN(c2ccc(Nc3nccc(-c4ccc(OC5CCOCC5)c(C#N)c4)n3)cc2)CC1 [Example 178, 5-(2-{[4-(4-methylpiperazin-1-yl)phenyl]amino}pyrimidin-4-yl)-2-(tetrahydro-2H-pyran-4-yloxy)benzonitrile] | < 100 | < 5 | < 10 |  |  | 
11 | COc1cc(Nc2nccc(-c3ccc(OC4CCOCC4)c(C#N)c3)n2)cc(OC)c1OC [Example 290, 2-(Tetrahydro-2H-pyran-4-yloxy)-5-{2-[(3,4,5-trimethoxyphenyl)amino]pyrimidin-4-yl}benzonitrile] | 250 to 500 | < 5 | < 10 |  |  | 
12 | CN(C)CCCNS(=O)(=O)c1ccc(Nc2nccc(-c3ccc(OC4CCOCC4)c(C#N)c3)n2)cc1 [Example 3, 4-({4-[3-cyano-4-(tetrahydro-2H-pyran-4-yloxy)phenyl]pyrimidin-2-yl}amino)-N-[3-(dimethylamino)propyl] benzenesulfonamide] | 250 to 500 | < 5 | < 10 | 280 | 2.8 | 0.2

Further lines, results first:

Row | IC50 [1, 2] [nM] | IC50 (IKKε; [3]) [nM] | IC50 (TBK1; [4]) [nM] | IC50 [1, 5] [nM] | IC50 (IKKε; Table 3, read-out: IKKε IC50) [nM] | IC50 (TBK1; Table 3, read-out: TBK1 IC50) [nM] | Compound
13 | < 100 | < 5 | < 10 |  |  |  | CCOC1CN(C(=O)c2ccc(Nc3nccc(-c4ccc(OC5CCOCC5)c(C#N)c4)n3)cc2OC)C1 [compound 599, 5-[2-({4-[(3-Ethoxyazetidin-1-yl)carbonyl]-3-methoxyphenyl}amino)pyrimidin-4-yl]-2-(tetrahydro-2H-pyran-4-yloxy)benzonitrile]
14 | < 100 | < 5 | < 10 |  |  |  | COc1ccc(Nc2nccc(-c3ccc(OC4CCOCC4)c(C#N)c3)n2)cc1OCCCN1CCOCC1 [compound 529, 5-[2-({4-methoxy-3-[3-(morpholin-4-yl)propoxy]phenyl}amino)pyrimidin-4-yl]-2-(tetrahydro-2H-pyran-4-yloxy)benzonitrile]
15 | 250 to 500 | < 5 | < 10 |  |  |  | COc1cc(Nc2nccc(-c3ccc(OC4CCOCC4)c(C#N)c3)n2)ccc1S(=O)(=O)NC1CCN(C)CC1 [Example 253, 4-({4-[3-cyano-4-(tetrahydro-2H-pyran-4-yloxy)phenyl]pyrimidin-2-yl}amino)-2-methoxy-N-(1-methylpiperidin-4-yl)benzenesulfonamide]
16 | 250 to 500 | < 5 | < 10 |  |  |  | COc1cc(Nc2nccc(-c3ccc(OC4CCOCC4)c(C#N)c3)n2)ccc1O [Example 262, 5-{2-[(4-hydroxy-3-methoxyphenyl)amino]pyrimidin-4-yl}-2-(tetrahydro-2H-pyran-4-yloxy)benzonitrile]
17 | < 100 | < 5 | < 10 |  |  |  | COc1cc(Nc2nccc(-c3ccc(OC4CCOCC4)c(C#N)c3)n2)ccc1C(=O)N1CCN(C)CC1 [compound 354, 5-[2-({3-methoxy-4-[(4-methylpiperazin-1-yl)carbonyl]phenyl}amino)pyrimidin-4-yl]-2-(tetrahydro-2H-pyran-4-yloxy)benzonitrile]
18 | < 100 | < 5 | < 10 |  |  |  | COc1cc(Nc2nccc(-c3ccc(OC4CCOCC4)c(C#N)c3)n2)ccc1C(=O)NCCN1CCCC1 [compound 504, 4-({4-[3-cyano-4-(tetrahydro-2H-pyran-4-yloxy)phenyl]pyrimidin-2-yl}amino)-2-methoxy-N-[2-(pyrrolidin-1-yl)ethyl]benzamide]
19 | 250 to 500 | < 5 | < 10 |  |  |  | COc1cc(Nc2nccc(-c3ccc(OC4CCOCC4)c(C#N)c3)n2)ccc1OCCOCCNS(=O)(=O)N1CCN(C)CC1 [Example 27, N-(2-{2-[4-({4-[3-cyano-4-(tetrahydro-2H-pyran-4-yloxy)phenyl]pyrimidin-2-yl}amino)-2-methoxyphenoxy]ethoxy}ethyl)-4-methylpiperazine-1-sulfonamide]
20 | 100 to 250 | < 5 | < 10 |  |  |  | CN1CCC(NS(=O)(=O)c2ccc(Nc3nccc(-c4ccc(OC5CCOCC5)c(C#N)c4)n3)cc2)CC1 [compound 371, 4-({4-[3-cyano-4-(tetrahydro-2H-pyran-4-yloxy)phenyl]pyrimidin-2-yl}amino)-N-(1-methylpiperidin-4-yl)benzenesulfonamide]
